Reference: PubChem BioAssay AID1845202 (Molecular Pharmacology Branch, DTP, NCI, 2023)

Tested on: DMS 114 tumor spheroids, viability % test/control
Experiment: Anticancer human tumor DMS 114 cell line growth inhibition;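 note: spheroids exposed to compounds for 7 days before read-out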;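 for viability, T/C: luminescence used as a proxy for viable cells; 100% = DMSO vehicle control viability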
Settings: spheroids with HUVEC and MSC; for IC50: curve of first compound; for viability, T/C: stronger effect = lower value
Outline: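 Complex tumor spheroids combined malignant cells with endothelial cells and mesenchymal stem cells. DNA-damaging drugs and DNA repair inhibitors were tested alone and in combination, at half-log dilutions down from clinical Cmax (top 10 microM if Cmax unknown), 0.25% DMSO final.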

Q: How did the IC50 (second compound 30 pM) turn out when `Cc1cc(C)c(CNC(=O)c2cc(-c3ccc(CN4CCOCC4)cc3)cc3c2cnn3C2CCCC2)c(=O)[nH]1` + COc1cc2c(cc1O)CCNC21CSC2c3c(OC(C)=O)c(C)c4c(c3C(COC1=O)N1C(O)C3Cc5cc(C)c(OC)c(O)c5C(C21)N3C)OCO4 was run?
A: > 10000 nM

Q: And the IC50 (second compound 94.9 pM)?
A: > 10000 nM

Q: And the IC50 (second compound 0.0003 µM)?
A: < 31.6 nM

Q: And the IC50 (second compound 0.000949 µM)?
A: < 31.6 nM

Q: And the IC50 (second compound 0.003 µM)?
A: < 31.6 nM

Q: What about the viability, T/C (second compound 30 pM, first compound 0.0316 µM) of the same compound?
A: 112%

Q: And the viability, T/C (second compound 30 pM, first compound 0.1 µM)?
A: 100%

Q: What about the viability, T/C (second compound 30 pM, first compound 0.316 µM) of the same compound?
A: 104%

Q: What about the viability, T/C (second compound 30 pM, first compound 1 µM) of the same compound?
A: 113%

Q: What about the viability, T/C (second compound 30 pM, first compound 3.16 µM) of the same compound?
A: 115%

Q: And the viability, T/C (second compound 30 pM, first compound 10 µM)?
A: 73.2%

Q: What about the viability, T/C (second compound 94.9 pM, first compound 0.0316 µM) of the same compound?
A: 113%

Q: What about the viability, T/C (second compound 94.9 pM, first compound 0.1 µM) of the same compound?
A: 108%

Q: And the viability, T/C (second compound 94.9 pM, first compound 0.316 µM)?
A: 112%

Q: And the viability, T/C (second compound 94.9 pM, first compound 1 µM)?
A: 102%

Q: And the viability, T/C (second compound 94.9 pM, first compound 3.16 µM)?
A: 98.6%

Q: What about the viability, T/C (second compound 94.9 pM, first compound 10 µM) of the same compound?
A: 52.1%

Q: What about the viability, T/C (second compound 0.0003 µM, first compound 0.0316 µM) of the same compound?
A: 40.1%

Q: What about the viability, T/C (second compound 0.0003 µM, first compound 0.1 µM) of the same compound?
A: 35.8%

Q: What about the viability, T/C (second compound 0.0003 µM, first compound 0.316 µM) of the same compound?
A: 48.1%

Q: And the viability, T/C (second compound 0.0003 µM, first compound 1 µM)?
A: 38.8%

Q: What about the viability, T/C (second compound 0.0003 µM, first compound 3.16 µM) of the same compound?
A: 41.4%

Q: What about the viability, T/C (second compound 0.0003 µM, first compound 10 µM) of the same compound?
A: 35.6%

Q: What about the viability, T/C (second compound 0.000949 µM, first compound 0.0316 µM) of the same compound?
A: 2.74%

Q: And the viability, T/C (second compound 0.000949 µM, first compound 0.1 µM)?
A: 3.63%

Q: What about the viability, T/C (second compound 0.000949 µM, first compound 0.316 µM) of the same compound?
A: 3.61%

Q: And the viability, T/C (second compound 0.000949 µM, first compound 1 µM)?
A: 3.83%

Q: And the viability, T/C (second compound 0.000949 µM, first compound 3.16 µM)?
A: 3.94%

Q: What about the viability, T/C (second compound 0.000949 µM, first compound 10 µM) of the same compound?
A: 4.03%

Q: And the viability, T/C (second compound 0.003 µM, first compound 0.0316 µM)?
A: 0.31%

Q: What about the viability, T/C (second compound 0.003 µM, first compound 0.1 µM) of the same compound?
A: 0.33%

Q: And the viability, T/C (second compound 0.003 µM, first compound 0.316 µM)?
A: 0.32%

Q: What about the viability, T/C (second compound 0.003 µM, first compound 1 µM) of the same compound?
A: 0.44%

Q: And the viability, T/C (second compound 0.003 µM, first compound 3.16 µM)?
A: 0.34%

Q: What about the viability, T/C (second compound 0.003 µM, first compound 10 µM) of the same compound?
A: 0.4%
